Experimental data: PubChem BioAssay (NCI)
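The compound was tested at five concentrations on cells cultured in 96-well plates, with a 48-hour exposure period. At the GI50, growth is halved. The concentration for full growth arrest is given as TGI.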

Columns and labels:
Experiment in all cases: DTP human tumour cell line panel, 48 h
[1] = tested on: MDA-MB-231 breast
[2] = tested on: NCI-H460 lung
[3] = tested on: SF-268 CNS
[4] = tested on: SF-295 CNS
[5] = tested on: NCI-H23 lung
[6] = tested on: SW-620 colon
[7] = tested on: CCRF-CEM leukemia
[8] = tested on: HT29 colon
[9] = tested on: BT-549 breast
[10] = tested on: HCT-15 colon
[11] = tested on: OVCAR-5 ovarian
[12] = tested on: SF-539 CNS
[13] = tested on: SR leukemia
[14] = tested on: COLO 205 colon

Row | Compound | TGI [1] [µM] | TGI [2] [µM] | TGI [3] [µM] | TGI [4] [µM] | TGI [5] [µM] | TGI [6] [µM] | TGI [7] [µM] | TGI [8] [µM] | TGI [9] [µM] | TGI [10] [µM] | TGI [11] [µM] | TGI [12] [µM] | TGI [13] [µM] | TGI [14] [µM] | GI50 [1] [µM] | GI50 [2] [µM] | GI50 [4] [µM] | GI50 [6] [µM] | GI50 [11] [µM] | GI50 [12] [µM]
1 | CC(=O)OCC1OC(OCCCCCCO)C(OC(C)=O)C(OC(C)=O)C1OC(C)=O (stereo not given) | > 100 | > 100 | > 100 | > 100 | > 100 | > 100 | > 100 | > 100 | > 100 | > 100 | > 100 | > 100 | > 100 | – | – | – | – | – | – | –
2 | CC1(C)C(=O)c2ccccc2OC1N1CCN(C2Oc3ccccc3C(=O)C2(C)C)CC1 (stereo not given) | > 100 | > 100 | > 100 | – | > 100 | > 100 | > 100 | > 100 | > 100 | > 100 | > 100 | – | > 100 | > 100 | – | – | – | – | – | –
3 | Cc1cn(C2CC(N)C(C(=O)NCC(=O)O)O2)c(=O)[nH]c1=O (stereo not given) | > 100 | > 100 | > 100 | – | > 100 | > 100 | > 100 | > 100 | > 100 | > 100 | > 100 | – | > 100 | > 100 | – | – | – | – | – | –
4 | COc1ccc(-c2ccc(-c3ccc(C(=N)N)nc3)s2)cc1Cl | 3.38 | 3.36 | – | 3.24 | – | 3.37 | – | – | – | – | 3.32 | 3.17 | – | – | 1.7 | 1.8 | 1.8 | 1.79 | 1.86 | 1.74
5 | C=CCN1C(=O)/C(=C/c2ccco2)N=C1SC1OC(COC(C)=O)C(OC(C)=O)C(OC(C)=O)C1OC(C)=O (stereo not given) | > 100 | > 100 | – | > 100 | > 100 | > 100 | – | – | > 100 | > 100 | > 100 | > 100 | > 100 | > 100 | – | – | – | – | – | –
